Data from patent publication US9545416B2 (Universite de Montreal, priority 2011, dated 2017).
“Also recorded” adds a separate entry of the source. Like-named read-outs stand apart in the source and are kept apart here. Each block holds one compound with its values, some of them ahead of it.

How the values were obtained:
Parental FaDu cells = assay: Cell number / growth assay, parental FaDu cells; type: cell-based
Procedure: (§1) (FIG. 6). Gli-1 knockdown experiments were performed in parallel.

eIF4E = target: T1, eIF4E (Homo sapiens, UniProt P06730); assay: Immunoprecipitation of labelled (3H/14C) ribavirin with eIF4E in living cells; type: binding
T1 construct: endogenous in cells; host or cells: parental FaDu, F10R and F100R resistant cells
Procedure: In total, it appears that these AML specimens have developed an “oncogene addiction” to eIF4E making them more sensitive to inhibition of eIF4E than specimens with normal eIF4E levels.
It was determined whether ^14C-ribavirin could immunoprecipitate with eIF4E in the F10R and F100R resistant cell lines.
Cells were treated for 24 hours with ^14C-ribavirin followed by cross-linking and immunoprecipitation and evaluated relative to IgG controls.

[1] = reported according to Roche; cited from earlier work
F100R cells = assay: Cell growth assay, type 1 resistant F100R cells; type: cell-based; details: GDC-0449, type 1 resistant F100R cells
F10R cells = assay: Cell number / growth assay, F10R resistant cells; type: cell-based
Procedure: as §1

[2] = system: FaDu and THP1 cells and resistant F10R, F100R, T10R, T20R cell lines; assay: Uptake of 3H-ribavirin in parental and resistant cell lines; type: cell-based; details: 0 to 16 hours
[3] = system: FaDu and THP1 cells and resistant F10R, F100R, T10R, T20R cell lines; details: previous studies; cited from earlier work
eIF4E gene product = target: T2, eIF4E gene product (Homo sapiens, UniProt P06730); assay: Molecular analysis of eIF4E gene product activity in trial patients; type: in vivo; details: after 28 days of oral ribavirin, monotherapy trial
T2 construct: from tissue; host or cells: leukemia specimens of AML patients in the clinical trials
Description: In terms of clinical response, 1 CR (complete remission), 2 PR (partial remission), 3 BR (blast response), 6 SD (stable disease), 3PD (progressive disease) were observed out of 15 evaluable patients. […] A biphasic molecular response was observed, where initially the eIF4E gene product was dramatically re-distributed to the cytoplasm in patients that responded. This was followed by a drop in eIF4E RNA and protein levels (up to one 28 day cycle).

[4] = system: Gli-1 overexpressing cells; assay: Cell number assay, Gli-1 overexpressing FaDu cells; type: cell-based; details: 20 μM ribavirin
Procedure: as §1

MDR1 = MDR1 levels in patients; type: in vivo, human; details: Patient 10 (BR), four cycles
[5] = system: relapsed/refractory M4/M5 AML
Description: The molecular features identified in present studies were examined to determine whether they were relevant to specimens from patients that received ribavirin monotherapy in the multi-centre phase II AML trial. For responding patients, all available specimens before treatment were monitored, during clinical response, upon the onset of relapse and in non-responders when possible. A total of ten specimens were examined including those from patients that enrolled in the monotherapy trial. […] Of these, samples from 10 patients were available for evaluation of molecular response. […] Gli-1 mRNA levels were monitored using qRT-PCR.

Gli-1 mRNA = Gli-1 mRNA levels in patient specimens (qRT-PCR); type: in vivo, human; details: two patients that did not respond (PD)
Description: For responding patients, in all cases Gli-1 mRNA levels were higher at resistance than during response.
The molecular features identified in present studies were examined to determine whether they were relevant to specimens from patients that received ribavirin monotherapy in the multi-centre phase II AML trial. For responding patients, all available specimens before treatment were monitored, during clinical response, upon the onset of relapse and in non-responders when possible. A total of ten specimens were examined including those from patients that enrolled in the monotherapy trial. Results from the trial, when closed, were 1 CR, 2 PR, 3 BR, 6 SD, 3 PD with 15 evaluable patients (Clinicaltrials.gov). Of these, samples from 10 patients were available for evaluation of molecular response. […] Gli-1 mRNA levels were monitored using qRT-PCR. […] (See above table).

ENT1 = ENT1 RNA levels in patients (RT-qPCR); type: in vivo, human; details: Patient 10 (BR), four cycles
Description: Results from RT-qPCR are normalised against multiple genes to ensure no changes in the normalised occurred as described.

[6] = system: ENT1, ADK or Gli-1 levels; assay: Deep sequencing of 10R cells during ribavirin treatment; type: cell-based
Description: All deep sequencing in resistant cells is done in the absence of ribavirin.

cyclin D1 and VEGF = assay: Protein levels of eIF4E export and translation targets as a function of ribavirin treatment; type: cell-based

T2 sequence (P06730 whole entry): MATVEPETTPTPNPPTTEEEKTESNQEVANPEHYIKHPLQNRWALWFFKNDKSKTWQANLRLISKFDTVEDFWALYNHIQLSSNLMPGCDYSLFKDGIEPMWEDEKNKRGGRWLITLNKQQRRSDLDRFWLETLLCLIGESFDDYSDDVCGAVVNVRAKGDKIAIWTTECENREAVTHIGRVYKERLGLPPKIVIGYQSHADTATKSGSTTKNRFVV

ribavirin binding to eIF4E after GDC-0449 treatment (eIF4E; F10R cells): increase in ribavirin binding to eIF4E
Compound: CS(=O)(=O)c1ccc(C(=O)Nc2ccc(Cl)c(-c3ccccn3)c2)c(Cl)c1 [GDC-0449]
reduction in growth (Parental FaDu cells; 3 nM GDC-0449 alone): 25%
plasma levels [1]: 3 nM
growth (F100R cells): no effect
growth (F10R cells; 3 nM GDC-0449 alone, F10R cells): did not affect

Compound: NC(=O)c1ncn([C@@H]2O[C@H](CO)[C@@H](O)[C@H]2O)n1 [ribavirin, 1-[(2R,3R,4S,5R)-3,4-dihydroxy-5-(hydroxymethyl)oxolan-2-yl]-1H-1,2,4-triazole-3-carboxamide]
3H-ribavirin uptake ([2]; F10R cells): indistinguishable from parental FaDu cells
3H-ribavirin uptake ([2]; F100R, T10R and T20R cell lines): severe defects in ribavirin uptake
time of maximal uptake after ribavirin treatment [3]: 8 to 10 h
decrease in cell number (Parental FaDu cells; 10 μM ribavirin for 96 hours): about 50%
reduction of cell number (Parental FaDu cells; 20 μM ribavirin): 50%
mRNA export activity of the eIF4E gene product (eIF4E gene product): substantially reduced
immunoprecipitation of 14C ribavirin with eIF4E (eIF4E; F10R cell line): does not immunoprecipitate with eIF4E; also recorded: did not immunoprecipitate
immunoprecipitation of 14C ribavirin with eIF4E (eIF4E; F100R cell line): does not immunoprecipitate with eIF4E
cell number as % of the untreated Gli-1 overexpressing cells [4]: 95%
change of plasma ribavirin levels (CR patient of combination trial after Ara-C lowered to 10 mg/day): near doubling
ribavirin plasma levels (combination trial with subcutaneous low dose Ara-C): 4 to 10 µM
ribavirin plasma levels (monotherapy trial, 2000 mg/day): 20 to 30 µM
ribavirin plasma levels (monotherapy trial, 2800 mg/day): 20 µM
increase in MDR1 at relapse (MDR1): 17 fold
number of patients with BR (blast response) ([5]; out of 15 evaluable patients): 3
number of patients with CR (complete remission) ([5]; out of 15 evaluable patients): 1
number of patients with PD (progressive disease) ([5]; out of 15 evaluable patients): 3
number of patients with PR (partial remission) ([5]; out of 15 evaluable patients): 2
number of patients with SD (stable disease) ([5]; out of 15 evaluable patients): 6
drop in blasts ([5]; patient 18 (SD), during response): 20%
Gli-1 levels after 28 days of ribavirin (Gli-1 mRNA): not lowered
reduction in ENT1 levels at relapse (ENT1): 3 fold
ENT1, ADK or Gli-1 levels on addition of ribavirin [6]: did not alter
protein levels of cyclin D1 and VEGF (cyclin D1 and VEGF; parental cell lines): reduces levels of these proteins
protein levels of cyclin D1 and VEGF (cyclin D1 and VEGF; resistant cell lines): no longer affects these
cell numbers as % of the same cells without ribavirin (F10R cells; 20 μM ribavirin, RNAi knockdown of Gli-1 in F10R cells): about 50%
growth (F10R cells; 20 μM ribavirin, siRNA luciferase treated F10R cells): unaffected
